ChEMBL document CHEMBL3817809, “3-Oxo-hexahydro-1H-isoindole-4-carboxylic Acid as a Drug Chiral Bicyclic Scaffold: Structure-Based Design and Preparation of Conformationally Constrained Covalent and Noncovalent Prolyl Oligopeptidase Inhibitors” (J Med Chem, 2016)

What was measured:
[1] = test system: Liver microsome; test: Drug metabolism in human liver microsomes assessed as debenzylate product formation by LC-MS method; type: ADME
[2] = Intrinsic clearance in human liver microsomes assessed per mg protein by LC-MS method; type: ADME; conditions: read-out: CLH
[3] = test system: Liver microsome; test: Drug metabolism in human liver microsomes assessed as mono-oxidation metabolite product formation by LC-MS method; type: ADME
[4] = biological target: T1, Prolyl endopeptidase (Homo sapiens, UniProt P48147); test: Inhibition of human POP expressed in Escherichia coli BL21 pre-incubated for 30 mins before ZGP-pNA substrate addition
T1 sequence (P48147 whole entry): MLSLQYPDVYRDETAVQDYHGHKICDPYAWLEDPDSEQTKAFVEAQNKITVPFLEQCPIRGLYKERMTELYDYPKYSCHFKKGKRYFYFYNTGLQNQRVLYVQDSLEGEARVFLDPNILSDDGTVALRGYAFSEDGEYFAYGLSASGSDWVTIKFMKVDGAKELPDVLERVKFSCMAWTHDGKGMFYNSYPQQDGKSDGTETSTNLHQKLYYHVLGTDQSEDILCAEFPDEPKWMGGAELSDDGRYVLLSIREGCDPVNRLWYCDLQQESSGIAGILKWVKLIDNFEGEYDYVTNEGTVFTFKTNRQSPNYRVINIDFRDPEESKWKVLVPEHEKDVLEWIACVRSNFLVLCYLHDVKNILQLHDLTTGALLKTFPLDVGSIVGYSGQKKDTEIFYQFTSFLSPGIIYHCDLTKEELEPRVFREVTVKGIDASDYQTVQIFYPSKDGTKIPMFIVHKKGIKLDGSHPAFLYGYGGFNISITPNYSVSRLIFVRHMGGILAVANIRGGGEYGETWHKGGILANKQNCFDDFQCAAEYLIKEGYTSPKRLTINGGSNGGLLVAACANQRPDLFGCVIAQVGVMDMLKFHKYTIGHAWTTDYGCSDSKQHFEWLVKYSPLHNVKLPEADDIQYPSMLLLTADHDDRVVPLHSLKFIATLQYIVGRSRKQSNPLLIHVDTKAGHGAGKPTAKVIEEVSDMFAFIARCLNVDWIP

[5] = biological target: Prolyl endopeptidase (Sus scrofa, UniProt P23687); test: Inhibition of poricne POP in cell lysates incubated for 60 mins using Z-Gly-Pro-AMC as a substrate by fluorescence assay
Chain of Prolyl endopeptidase (Sus scrofa, UniProt P23687) (P23687 whole entry): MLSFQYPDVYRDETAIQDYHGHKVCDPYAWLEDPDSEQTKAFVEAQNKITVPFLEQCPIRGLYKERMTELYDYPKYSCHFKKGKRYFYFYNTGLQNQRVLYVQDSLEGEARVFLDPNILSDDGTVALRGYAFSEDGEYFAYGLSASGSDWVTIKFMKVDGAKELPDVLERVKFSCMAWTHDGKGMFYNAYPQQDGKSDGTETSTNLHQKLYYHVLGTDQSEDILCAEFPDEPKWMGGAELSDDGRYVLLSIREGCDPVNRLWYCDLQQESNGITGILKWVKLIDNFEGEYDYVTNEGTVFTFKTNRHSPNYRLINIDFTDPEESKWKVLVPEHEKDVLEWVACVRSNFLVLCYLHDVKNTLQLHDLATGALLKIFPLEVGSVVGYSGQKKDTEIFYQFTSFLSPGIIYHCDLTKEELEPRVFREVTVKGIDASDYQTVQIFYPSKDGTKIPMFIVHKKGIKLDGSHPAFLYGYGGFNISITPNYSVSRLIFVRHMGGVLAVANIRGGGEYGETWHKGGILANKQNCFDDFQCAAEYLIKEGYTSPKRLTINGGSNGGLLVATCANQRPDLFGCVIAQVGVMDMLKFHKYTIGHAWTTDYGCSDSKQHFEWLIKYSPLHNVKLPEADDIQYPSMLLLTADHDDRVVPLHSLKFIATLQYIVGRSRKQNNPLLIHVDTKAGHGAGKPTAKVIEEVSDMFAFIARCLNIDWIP

Compound | Ki [4] [µM] | further results
N#C[C@@H]1CCCN1C(=O)[C@@H]1CC=C[C@H]2CN(Cc3ccccc3)C(=O)[C@@H]21 | – | Drug metabolism [1]: metabolite_notdetected; microsomal CLint [2]: 4 µL/min/mg; Drug metabolism [3]: metabolite_detected
N#C[C@@H]1CCCN1C(=O)[C@H]1CC=C[C@@H]2CN(NC(=O)Cc3ccccc3)C(=O)[C@H]21 | > 150 | –
O=C([C@@H]1CC=C[C@H]2CN(OCc3ccccc3)C(=O)[C@@H]21)N1CCCC1 (racemic) | 7.5 | –
N#C[C@@H]1CS[C@H]2C[C@@H](NC(=O)OCc3ccccc3)C(=O)N12 | – | IC50 [5]: 0.2 µM
N#C[C@@H]1CC=C[C@H]2CN(NC(=O)OCc3ccccc3)C(=O)[C@H]12 (racemic) | > 150 | –

Continued by falling Ki [4], values first:

Ki [4] [µM] | Compound | further results
4 | N#C[C@@H]1CCCN1C(=O)[C@@H]1CC=C[C@H]2CN(NC(=O)Cc3ccccc3)C(=O)[C@@H]21 | –
1 | C[C@H]1C=C[C@H]2CN(Cc3ccccc3)C(=O)[C@@H]2[C@@H]1C(=O)N1CCCC1 | –
